Laboratory results taken from the NIST ThermoML archive (doi:10.1021/je500380x).

Assay: mn = molality of the nth substance listed, in mol/kg
Conditions: 100 kPa, Liquid; for viscosity: Falling or rolling sphere viscometry; for mass density: Vibrating tube method; for electrical conductivity: Alternating current cell with electrodes

CCC(=O)OCCN1CCNCC1 [2-(piperazin-1-yl)ethyl propionate] + O
Conditions | electrical conductivity, 313.15 K [S/m] | electrical conductivity, 318.15 K [S/m] | mass density, 308.15 K [kg/m3] | mass density, 313.15 K [kg/m3] | viscosity, 308.15 K [mPa·s] | viscosity, 313.15 K [mPa·s]
m1 = 0.05 | 0.359 | 0.392 | 995.91 | 994.07 | – | 0.687
m1 = 0.0999 | 0.651 | 0.711 | 997.73 | 995.89 | – | 0.714
m1 = 0.1996 | 1.143 | 1.25 | 1001.37 | 999.5 | – | 0.763
m1 = 0.3 | 1.56 | 1.707 | 1005.16 | 1003.25 | – | 0.806
m1 = 0.3997 | 1.903 | 2.08 | 1008.83 | 1006.85 | – | 0.861
m1 = 0.5001 | 2.18 | 2.39 | 1012.54 | 1010.55 | – | 0.928
m1 = 0.5992 | 2.43 | 2.66 | 1016.24 | 1014.22 | – | 0.994
m1 = 0.6993 | 2.62 | 2.86 | 1019.8 | 1017.89 | – | 1.069
m1 = 0.7997 | 2.77 | 3.04 | 1023.89 | 1021.76 | – | 1.159
m1 = 0.9003 | 2.88 | 3.17 | 1027.51 | 1025.33 | – | 1.258
m1 = 0.9988 | 2.96 | 3.26 | 1031.34 | 1029.11 | 1.524 | 1.361
m1 = 1.199 | 3.02 | 3.34 | 1038.89 | 1036.57 | 1.83 | 1.623
m1 = 1.402 | 2.99 | 3.31 | 1046.51 | 1044.07 | 2.203 | 1.944
m1 = 1.6 | 2.84 | 3.19 | 1053.82 | 1051.27 | 2.745 | 2.407
m1 = 1.802 | 2.65 | 2.96 | 1061.17 | 1058.51 | 3.361 | 2.925
m1 = 1.998 | 2.4 | – | 1068.11 | 1065.33 | 4.23 | 3.651
m1 = 2.2 | 2.13 | – | 1074.9 | 1072.02 | 5.468 | 4.68
m1 = 2.402 | 1.843 | – | 1081.54 | 1078.58 | 7.079 | 6.032
m1 = 2.6 | 1.53 | – | 1087.28 | 1084.23 | 10.12 | 8.455
m1 = 2.798 | 1.215 | – | 1092.61 | 1089.49 | 13.61 | 11.32
m1 = 3.002 | 0.987 | – | 1097.53 | 1094.34 | 18.37 | 15.06
